Source: ChEMBL document CHEMBL3352057, “Novel fluorinated pyrrolo[1,2-a]pyrazine-2,6-dione derivatives: synthesis and anticonvulsant evaluation in animal models of epilepsy” (Bioorg Med Chem, 2014)
The source made the active and inactive calls. The rule behind the calls is not given here.

What follows are molecules tested on Mus musculus (assay: Anticonvulsant activity in albino CF1 mouse assessed as protection against maximal electroshock-induced seizures at 100 mg/kg, ip measured after 0.25 hr). Conditions: not given.
Format: functional, organism-based
Parameters: dose 100 mg/kg

Compound	Activity
O=C1NC(=O)[C@@H]2CCCN2[C@H]1c1ccccc1C(F)(F)F	inactive
O=C1NC(=O)[C@@H]2CCCN2[C@H]1c1c(F)cccc1Cl (mixture of isomers)	inactive

The molecules below were run on Mus musculus (assay: Anticonvulsant activity in albino CF1 mouse assessed as protection against maximal electroshock-induced seizures at 100 mg/kg, ip measured after 0.5 hr). Conditions: not given.
Format: functional, organism-based
Parameters: dose 100 mg/kg

Compound	Activity
O=C1NC(=O)[C@@H]2CCCN2[C@H]1c1ccccc1C(F)(F)F	inactive
O=C1NC(=O)[C@@H]2CCCN2[C@H]1c1c(F)cccc1Cl (mixture of isomers)	inactive

What follows are molecules tested on Mus musculus (assay: Anticonvulsant activity in albino CF1 mouse assessed as protection against maximal electroshock-induced seizures at 100 mg/kg, ip measured after 1 hr). Conditions: not given.
Format: functional, organism-based
Parameters: dose 100 mg/kg

Compound	Activity
O=C1NC(=O)[C@@H]2CCCN2[C@H]1c1ccccc1C(F)(F)F	inactive
O=C1NC(=O)[C@@H]2CCCN2[C@H]1c1c(F)cccc1Cl (mixture of isomers)	inactive

These molecules were tested on Mus musculus (assay: Anticonvulsant activity in albino CF1 mouse assessed as protection against maximal electroshock-induced seizures at 100 mg/kg, ip measured after 4 hrs). Conditions: not given.
Format: functional, organism-based
Parameters: dose 100 mg/kg

Compound	Activity
O=C1NC(=O)[C@@H]2CCCN2[C@H]1c1ccccc1C(F)(F)F	inactive
O=C1NC(=O)[C@@H]2CCCN2[C@H]1c1c(F)cccc1Cl (mixture of isomers)	inactive

What follows are molecules tested on Mus musculus (assay: Anticonvulsant activity in albino CF1 mouse assessed as protection against subcutaneous metrazol-induced seizures at 100 mg/kg, ip measured after 0.25 hr). Conditions: not given.
Format: functional, organism-based
Parameters: dose 100 mg/kg

Compound	Activity
O=C1NC(=O)[C@@H]2CCCN2[C@H]1c1ccccc1C(F)(F)F	inactive
O=C1NC(=O)[C@@H]2CCCN2[C@H]1c1c(F)cccc1Cl (mixture of isomers)	inactive

Each molecule was assayed on Mus musculus (assay: Anticonvulsant activity in albino CF1 mouse assessed as protection against subcutaneous metrazol-induced seizures at 100 mg/kg, ip measured after 0.5 hr). Conditions: not given.
Format: functional, organism-based
Parameters: dose 100 mg/kg

Compound	Activity
O=C1NC(=O)[C@@H]2CCCN2[C@H]1c1ccccc1C(F)(F)F	inactive
O=C1NC(=O)[C@@H]2CCCN2[C@H]1c1c(F)cccc1Cl (mixture of isomers)	inactive

Each molecule was assayed on Mus musculus (assay: Anticonvulsant activity in albino CF1 mouse assessed as protection against subcutaneous metrazol-induced seizures at 100 mg/kg, ip measured after 1 hr). Conditions: not given.
Format: functional, organism-based
Parameters: dose 100 mg/kg

Compound	Activity
O=C1NC(=O)[C@@H]2CCCN2[C@H]1c1ccccc1C(F)(F)F	inactive
O=C1NC(=O)[C@@H]2CCCN2[C@H]1c1c(F)cccc1Cl (mixture of isomers)	inactive

Each molecule was assayed on Mus musculus (assay: Anticonvulsant activity in albino CF1 mouse assessed as protection against subcutaneous metrazol-induced seizures at 100 mg/kg, ip measured after 4 hrs). Conditions: not given.
Format: functional, organism-based
Parameters: dose 100 mg/kg

Compound	Activity
O=C1NC(=O)[C@@H]2CCCN2[C@H]1c1ccccc1C(F)(F)F	inactive
O=C1NC(=O)[C@@H]2CCCN2[C@H]1c1c(F)cccc1Cl (mixture of isomers)	inactive

Each molecule was assayed on Mus musculus (assay: Neurotoxicity in albino CF1 mouse at 100 mg/kg, ip measured after 0.25 hr). Conditions: in vivo.
Format: toxicity, organism-based
Parameters: dose 100 mg/kg, route intraperitoneal

Compound	Activity
O=C1NC(=O)[C@@H]2CCCN2[C@H]1c1ccccc1C(F)(F)F	Non-toxic
O=C1NC(=O)[C@@H]2CCCN2[C@H]1c1c(F)cccc1Cl (mixture of isomers)	Non-toxic

Each molecule was assayed on Mus musculus (assay: Neurotoxicity in albino CF1 mouse at 100 mg/kg, ip measured after 0.5 hr). Conditions: in vivo.
Format: toxicity, organism-based
Parameters: dose 100 mg/kg, route intraperitoneal

Compound	Activity
O=C1NC(=O)[C@@H]2CCCN2[C@H]1c1ccccc1C(F)(F)F	Non-toxic
O=C1NC(=O)[C@@H]2CCCN2[C@H]1c1c(F)cccc1Cl (mixture of isomers)	Non-toxic

These molecules were tested on Mus musculus (assay: Neurotoxicity in albino CF1 mouse at 100 mg/kg, ip measured after 1 hr). Conditions: in vivo.
Format: toxicity, organism-based
Parameters: dose 100 mg/kg, route intraperitoneal

Compound	Activity
O=C1NC(=O)[C@@H]2CCCN2[C@H]1c1ccccc1C(F)(F)F	Non-toxic
O=C1NC(=O)[C@@H]2CCCN2[C@H]1c1c(F)cccc1Cl (mixture of isomers)	Non-toxic

The molecules below were run on Mus musculus (assay: Neurotoxicity in albino CF1 mouse at 100 mg/kg, ip measured after 4 hrs). Conditions: in vivo.
Format: toxicity, organism-based
Parameters: dose 100 mg/kg, route intraperitoneal

Compound	Activity
O=C1NC(=O)[C@@H]2CCCN2[C@H]1c1ccccc1C(F)(F)F	Non-toxic
O=C1NC(=O)[C@@H]2CCCN2[C@H]1c1c(F)cccc1Cl (mixture of isomers)	Non-toxic

What follows are molecules tested on Mus musculus (assay: Anticonvulsant activity in albino CF1 mouse assessed as protection against 32 mA current-induced seizures at 100 mg/kg, ip measured after 0.25 hr). Conditions: not given.
Format: functional, organism-based
Parameters: dose 100 mg/kg

Compound	Activity
O=C1NC(=O)[C@@H]2CCCN2[C@H]1c1ccccc1C(F)(F)F	inactive
O=C1NC(=O)[C@@H]2CCCN2[C@H]1c1c(F)cccc1Cl (mixture of isomers)	inactive

Each molecule was assayed on Mus musculus (assay: Anticonvulsant activity in albino CF1 mouse assessed as protection against 32 mA current-induced seizures at 100 mg/kg, ip measured after 0.5 hr). Conditions: not given.
Format: functional, organism-based
Parameters: dose 100 mg/kg

Compound	Activity
O=C1NC(=O)[C@@H]2CCCN2[C@H]1c1ccccc1C(F)(F)F	inactive
O=C1NC(=O)[C@@H]2CCCN2[C@H]1c1c(F)cccc1Cl (mixture of isomers)	inactive

These molecules were tested on Mus musculus (assay: Anticonvulsant activity in albino CF1 mouse assessed as protection against 32 mA current-induced seizures at 100 mg/kg, ip measured after 1 hr). Conditions: not given.
Format: functional, organism-based
Parameters: dose 100 mg/kg

Compound	Activity
O=C1NC(=O)[C@@H]2CCCN2[C@H]1c1ccccc1C(F)(F)F	inactive
O=C1NC(=O)[C@@H]2CCCN2[C@H]1c1c(F)cccc1Cl (mixture of isomers)	inactive

Each molecule was assayed on Mus musculus (assay: Anticonvulsant activity in albino CF1 mouse assessed as protection against 32 mA current-induced seizures at 100 mg/kg, ip measured after 2 hrs). Conditions: not given.
Format: functional, organism-based
Parameters: dose 100 mg/kg

Compound	Activity
O=C1NC(=O)[C@@H]2CCCN2[C@H]1c1ccccc1C(F)(F)F	inactive
O=C1NC(=O)[C@@H]2CCCN2[C@H]1c1c(F)cccc1Cl (mixture of isomers)	inactive

The molecules below were run on Mus musculus (assay: Anticonvulsant activity in albino CF1 mouse assessed as protection against 32 mA current-induced seizures at 100 mg/kg, ip measured after 4 hrs). Conditions: not given.
Format: functional, organism-based
Parameters: dose 100 mg/kg

Compound	Activity
O=C1NC(=O)[C@@H]2CCCN2[C@H]1c1ccccc1C(F)(F)F	inactive
O=C1NC(=O)[C@@H]2CCCN2[C@H]1c1c(F)cccc1Cl (mixture of isomers)	inactive

The molecules below were run on Mus musculus (assay: Neurotoxicity in 32 mA current-induced seizure albino CF1 mouse model at 100 mg/kg, ip measured after 0.25 hr). Conditions: in vivo.
Format: toxicity, organism-based
Parameters: dose 100 mg/kg, route intraperitoneal

Compound	Activity
O=C1NC(=O)[C@@H]2CCCN2[C@H]1c1ccccc1C(F)(F)F	Non-toxic
O=C1NC(=O)[C@@H]2CCCN2[C@H]1c1c(F)cccc1Cl (mixture of isomers)	Non-toxic

Each molecule was assayed on Mus musculus (assay: Neurotoxicity in 32 mA current-induced seizure albino CF1 mouse model at 100 mg/kg, ip measured after 0.5 hr). Conditions: in vivo.
Format: toxicity, organism-based
Parameters: dose 100 mg/kg, route intraperitoneal

Compound	Activity
O=C1NC(=O)[C@@H]2CCCN2[C@H]1c1ccccc1C(F)(F)F	Non-toxic
O=C1NC(=O)[C@@H]2CCCN2[C@H]1c1c(F)cccc1Cl (mixture of isomers)	Non-toxic

Each molecule was assayed on Mus musculus (assay: Neurotoxicity in 32 mA current-induced seizure albino CF1 mouse model at 100 mg/kg, ip measured after 1 hr). Conditions: in vivo.
Format: toxicity, organism-based
Parameters: dose 100 mg/kg, route intraperitoneal

Compound	Activity
O=C1NC(=O)[C@@H]2CCCN2[C@H]1c1ccccc1C(F)(F)F	Non-toxic
O=C1NC(=O)[C@@H]2CCCN2[C@H]1c1c(F)cccc1Cl (mixture of isomers)	Non-toxic

The molecules below were run on Mus musculus (assay: Neurotoxicity in 32 mA current-induced seizure albino CF1 mouse model at 100 mg/kg, ip measured after 2 hrs). Conditions: in vivo.
Format: toxicity, organism-based
Parameters: dose 100 mg/kg, route intraperitoneal

Compound	Activity
O=C1NC(=O)[C@@H]2CCCN2[C@H]1c1ccccc1C(F)(F)F	Non-toxic
O=C1NC(=O)[C@@H]2CCCN2[C@H]1c1c(F)cccc1Cl (mixture of isomers)	Non-toxic

These molecules were tested on Mus musculus (assay: Neurotoxicity in 32 mA current-induced seizure albino CF1 mouse model at 100 mg/kg, ip measured after 4 hrs). Conditions: in vivo.
Format: toxicity, organism-based
Parameters: dose 100 mg/kg, route intraperitoneal

Compound	Activity
O=C1NC(=O)[C@@H]2CCCN2[C@H]1c1ccccc1C(F)(F)F	Non-toxic
O=C1NC(=O)[C@@H]2CCCN2[C@H]1c1c(F)cccc1Cl (mixture of isomers)	Non-toxic
